Experiments:
[1] = target: T1, STAT6 (endogenous, HiBiT-tagged) in HeLa LgBiT clone 4.14 cells (Homo sapiens, UniProt P42226); experiment: STAT6 Degrader Assay (HiBiT based, HeLa LgBiT clone 4.14 cells, luminescence, DC50); assay type: cell-based; settings: geometric mean; for Emax: Emax provided for test compounds with <80% Emax (and 2c15), read-out: STAT6 degradation Emax; for DC50: DC50 provided for test compounds with >80% Emax, read-out: STAT6 degradation DC50
T1 construct: These cells express endogenous STAT6; host or cells: HeLa LgBiT clone 4.14
T1 sequence (P42226 1-847): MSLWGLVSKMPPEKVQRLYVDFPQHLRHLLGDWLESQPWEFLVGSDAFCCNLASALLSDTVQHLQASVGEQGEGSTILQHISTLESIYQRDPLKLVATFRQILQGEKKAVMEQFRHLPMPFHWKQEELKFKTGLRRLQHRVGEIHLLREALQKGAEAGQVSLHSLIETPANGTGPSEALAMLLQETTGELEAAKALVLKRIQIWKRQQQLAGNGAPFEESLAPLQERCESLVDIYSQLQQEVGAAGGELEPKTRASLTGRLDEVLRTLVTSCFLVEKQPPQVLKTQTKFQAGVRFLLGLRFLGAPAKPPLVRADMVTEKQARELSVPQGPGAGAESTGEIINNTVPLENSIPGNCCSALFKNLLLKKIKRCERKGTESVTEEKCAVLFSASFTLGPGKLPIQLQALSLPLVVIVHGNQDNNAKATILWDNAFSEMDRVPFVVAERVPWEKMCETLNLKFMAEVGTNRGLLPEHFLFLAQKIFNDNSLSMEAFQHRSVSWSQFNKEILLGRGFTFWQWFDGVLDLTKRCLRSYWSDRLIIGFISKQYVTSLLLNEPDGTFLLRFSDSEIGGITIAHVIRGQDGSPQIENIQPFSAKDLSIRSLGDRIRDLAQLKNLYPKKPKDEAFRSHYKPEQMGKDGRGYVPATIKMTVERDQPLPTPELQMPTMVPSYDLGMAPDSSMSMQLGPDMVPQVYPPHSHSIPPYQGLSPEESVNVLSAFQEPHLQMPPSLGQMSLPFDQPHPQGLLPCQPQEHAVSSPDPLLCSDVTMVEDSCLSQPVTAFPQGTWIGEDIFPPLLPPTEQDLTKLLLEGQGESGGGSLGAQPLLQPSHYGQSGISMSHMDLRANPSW
Outline: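 Remaining STAT6 is read as NanoBiT luminescence after 0.5 h with Nano-Glo, in HeLa LgBiT clone 4.14 cells expressing endogenous HiBiT-tagged STAT6, following 4-24 h compound incubation at 37 °C. Full degradation is set by 50 µM terfenadine, which kills the cells; degradation plotted against log compound concentration.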

[2] = target: T2, human STAT6 (truncated, aa122-658, with N-terminal His-tag) (Homo sapiens, UniProt P42226); experiment: Surface Plasmon Resonance (SPR) assay: binding of compounds to immobilized human STAT6; settings: immobilized human STAT6 (aa122-658), 25° C.; geometric mean
T2 construct: Human STAT6 (truncated, aa122-658, with N-terminal His-tag, expressed in insect cells); His-tag (N); made in house; host or cells: insect cells
T2 sequence (P42226 122-658): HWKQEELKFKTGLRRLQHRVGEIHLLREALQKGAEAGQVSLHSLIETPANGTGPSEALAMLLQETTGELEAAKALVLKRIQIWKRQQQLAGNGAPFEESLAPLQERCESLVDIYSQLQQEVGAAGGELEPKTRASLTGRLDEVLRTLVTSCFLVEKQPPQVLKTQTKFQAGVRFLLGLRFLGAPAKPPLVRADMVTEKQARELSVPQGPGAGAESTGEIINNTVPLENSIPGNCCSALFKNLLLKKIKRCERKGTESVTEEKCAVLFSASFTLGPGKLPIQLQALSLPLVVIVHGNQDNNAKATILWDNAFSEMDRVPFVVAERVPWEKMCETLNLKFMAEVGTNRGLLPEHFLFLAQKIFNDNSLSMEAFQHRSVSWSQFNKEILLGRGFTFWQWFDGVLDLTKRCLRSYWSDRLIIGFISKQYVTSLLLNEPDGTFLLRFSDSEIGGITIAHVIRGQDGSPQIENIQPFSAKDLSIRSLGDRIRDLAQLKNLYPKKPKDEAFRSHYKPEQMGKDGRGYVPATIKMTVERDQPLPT
Experimental: SPR was used to confirm and quantify binding of compounds to human STAT6. Biacore instruments from the 8K-series (Cytiva) were used, and measurements were performed at 25° C. Human STAT6 (truncated, aa122-658, with N-terminal His-tag, expressed in insect cells) was immobilized in the active flow cells on a CM5 chip using amine-coupling (default settings) at 10 μg/ml in 10 mM acetate buffer pH 5.5, at a contact time of 120-420 sec. and a flow rate of […]. Reference flow cells were deactivated using blank immobilization. PBS-P+ (Cytiva) supplemented with 2% DMSO was used as running buffer, and solvent correction was applied. Compounds were tested by multi-cycle kinetics injections using a contact time of 60 sec., dissociation time of up to 300 sec., and a flow rate of […].
Solvent-corrected, reference-subtracted and blank-corrected data was processed and binding isotherms were fitted according to a single report point from each sensorgram (Standard: Late binding (5 sec. before injection end); alternative: Earlier report point according to binding profile). Data fitting was done both with unfixed Rmax and with Rmax fixed to the theoretical value* assuming 1:1 binding to allow processing of data from both weak and strong binders as well as to evaluate binding stoichiometry.
Positive controls were run at the beginning, during, and at the end of the screen to evaluate surface activity. Generally surface activity was only affected to a minor degree, and no corrections were applied.
*Equation for calculation of the theoretical Rmax (Theoretical Rmax=(MW Analyte/MW Ligand) x immobilization level).
The sensorgrams for Examples 2a1, 2t1, 2m1, and 2a2 are shown below (where RU is plotted vs. time in seconds; dotted lines/points were excluded from the analysis due to effects from non-specific binding).

Row | SMILES | Emax [1] [%] | Kd [2] [nM] | DC50 [1] [nM]
1 | Cn1c(CN2CCC(c3ccc(C(=O)N4CCC(CN5CCN(c6ccc(NC7CCC(=O)NC7=O)cc6F)CC5)CC4)cc3)CC2)cc2c(-c3ccc(N)nc3C#N)ccnc21 (centres unmarked) [Example 2c8, 6-amino-3-(2-((4-(4-(4-((4-(4-((2,6-dioxopiperidin-3-yl)amino)-2-fluorophenyl)piperazin-1-yl)-methyl)piperidine-1-carbonyl)phenyl)piperidin-1-yl)methyl)-1-methyl-1H-pyrrolo[2,3-b]pyridin-4-yl)-picolinonitrile] | < 20 | 40 to 50 | 
2 | Cn1c(CN2CCC(c3ccc(C(=O)N4CCN(C(=O)CN5CCN(c6ccc(NC7CCC(=O)NC7=O)cc6F)CC5)CC4)cc3)CC2)cc2c(-c3ccc4[nH]ncc4c3)ccnc21 (centres unmarked) [Example 2a2, 3-((4-(4-(2-(4-(4-(1-((4-(1H-indazol-5-yl)-1-methyl-1H-pyrrolo[2,3-b]pyridin-2-yl)methyl)-piperidin-4-yl)benzoyl)piperazin-1-yl)-2-oxoethyl)piperazin-1-yl)-3-fluorophenyl)amino)piperidine-2,6-dione] | 60 to 70 | 61.2 | 
3 | Cn1c(CN2CCC(c3ccc(C(=O)N4CCC(CN5CCN(C(=O)c6ccc(NC7CCC(=O)NC7=O)cc6F)CC5)CC4)cc3)CC2)cc2c(-c3ccc4[nH]ncc4c3)ccnc21 (centres unmarked) [Example 2e1, 3-((4-(4-((1-(4-(1-((4-(1H-indazol-5-yl)-1-methyl-1H-pyrrolo[2,3-b]pyridin-2-yl)methyl)-piperidin-4-yl)benzoyl)piperidin-4-yl)methyl)piperazine-1-carbonyl)-3-fluorophenyl)amino)piperidine-2,6-dione] | < 20 | < 20 | 
4 | Cn1c(CN2CCC(c3ccc(C(=O)N4CCC(CN5CCC(n6ncc7cc(NC8CCC(=O)NC8=O)ccc76)CC5)CC4)cc3)CC2)cc2c(-c3ccc4[nH]ncc4c3)ccnc21 (centres unmarked) [Example 2t4, 3-((1-(1-((1-(4-(1-((4-(1H-indazol-5-yl)-1-methyl-1H-pyrrolo[2,3-b]pyridin-2-yl)methyl)-piperidin-4-yl)benzoyl)piperidin-4-yl)methyl)piperidin-4-yl)-1H-indazol-5-yl)amino)piperidine-2,6-dione] | < 20 | < 20 | 
5 | Cn1c(CN2CCC(c3ccc(C(=O)N4CCN(C(=O)CN5CCC(c6ccc(NC7CCC(=O)NC7=O)cc6F)CC5)CC4)cc3)CC2)cc2c(-c3ccc4[nH]ncc4c3)ccnc21 (centres unmarked) [Example 2a1, 3-((4-(1-(2-(4-(4-(1-((4-(1H-indazol-5-yl)-1-methyl-1H-pyrrolo[2,3-b]pyridin-2-yl)methyl)-piperidin-4-yl)benzoyl)piperazin-1-yl)-2-oxoethyl)piperidin-4-yl)-3-fluorophenyl)amino)piperidine-2,6-dione] |  | 224 | 4.9
6 | Cn1c(CN2CCC(c3ccc(C(=O)N4CCC(CN5CCC(c6ccc(NC7CCC(=O)NC7=O)cc6F)CC5)CC4)cc3)CC2)cc2c(-c3ccc4[nH]ncc4c3)ccnc21 (centres unmarked) [Example 2m1, 3-((4-(1-((1-(4-(1-((4-(1H-indazol-5-yl)-1-methyl-1H-pyrrolo[2,3-b]pyridin-2-yl)methyl)-piperidin-4-yl)benzoyl)piperidin-4-yl)methyl)piperidin-4-yl)-3-fluorophenyl)amino)piperidine-2,6-dione] | 60 to 70 | 466 | 
7 | Cn1c(CN2CCC(c3ccc(C(=O)N4CCN(C(=O)CN5CCC(c6ccc(OC7CCC(=O)NC7=O)cc6F)CC5)CC4)cc3)CC2)cc2c(-c3ccc4[nH]ncc4c3)ccnc21 (centres unmarked) [Example 2t1, 3-(4-(1-(2-(4-(4-(1-((4-(1H-indazol-5-yl)-1-methyl-1H-pyrrolo[2,3-b]pyridin-2-yl)methyl)-piperidin-4-yl)benzoyl)piperazin-1-yl)-2-oxoethyl)piperidin-4-yl)-3-fluorophenoxy) piperidine-2,6-dione] |  | 105 | 8.1

Reference: US20260014147A1, “STAT6 DEGRADERS” (Gilead Sciences, Inc., priority 2024, published 2026)
